Experimental data reported in patent US20250376481A1, “POLYCYCLIC CARBAMOYL PYRIDONE DERIVATIVE, PREPARATION METHOD THEREFOR AND PHARMACEUTICAL COMPOSITION THEREOF” (NANJING AIDEA PHARMACEUTICAL TECHNOLOGY CO., LTD., priority 2021, published 2025).
Read-outs that look alike come from different tables or passages of the source.

How the values were obtained:
[1] = system: HIV-1 pseudovirus; experiment: HIV-1 pseudovirus infection test (antiviral activity, luciferase); format: cell-based
Experimental: (§1) • Virus: The HIV-1 pseudovirus used in this experiment was a replication deficient virus, which is constructed by WuXi AppTec. • HEK 293T cell line was purchased from ATCC, and Item No. is CRL-11268. Cells were cultured in DMEM medium with 10% fetal bovine serum and 1% double antibody. • Reagents
(§2) On the first day, HEK 293T cells were inoculated into a 96 well test plate at the density of 55000 cells per well and […] per well, and incubated overnight in a 5% CO2 and 37° C. incubator.
(§3) On the second day, the tested compounds (compounds provided in the example of the present invention) and the control compounds were diluted 4-fold with cell culture medium for a total of 8 concentration points, and 50 μL diluted compounds were added to each well, and each well was performed duplicate.
Subsequently, the HIV-1 pseudovirus was diluted to 100 TCID50/50 μL with cell culture medium, and 50 μL diluted virus was added to each well.
(§4) Cell Control (cells, no compound treatment or virus infection) and virus control (cells infected with virus, no compound treatment) were set up. The final initial test concentration of the tested compounds and control compounds was 1000 nM (Table 1), and the amount of virus infection was 100 TCID50 per well. The total volume of cell culture medium was 200 μL per well, and the final concentration of DMSO in the culture medium was 0.5%.
(§5) The cells were cultured in a 5% CO2 and 37° C. incubator for additional 3 days.
On the fifth day, in the antiviral activity test plates, 100 μL cell supernatant was sucked away from each well, 100 μL 2X luciferase reporter gene assay reagent Britellite plus was added in dark. The luciferase activity in each well of the test plates was detected by Envision. The data was used for sample antiviral activity analysis.
(§6) Dose-response curve was drawn through GraphPad Prism software. The calculation equations for antiviral activity (% Inhibition) and cell viability (% cell viability) were as follow:
(§7) The values of EC50 and CC50 were analyzed by GraphPad Prism (version 5) software, and nonlinear fitting analysis was used for inhibitory activity and cell viability of the compounds, and the fitting method was “log (inhibitor) vs. response—Variable slope”.
(§8) 3. The HIV-1 pseudovirus experiment was applied to determinate the in vitro antiviral activity and cytotoxicity of the tested compound on HEK 293T cells, and the experimental results were shown in the table below.

[2] = system: HEK 293T cells; experiment: Cytotoxicity test (cell viability, CellTier Glo); format: cell-based; settings: HEK 293T cells, highest test concentration 1000 nM
Experimental: as §1, §2, §3, §4, §5
(§9) On the fifth day, in the cytotoxicity test plates, 100 μL cell supernatant were sucked from each well, 100 μL cell viability assay reagent CellTier Gloin was added in dark. Cell viability in each well was detected by BioTek enzyme-linked immunosorbent assay reader, and the data was used for sample cytotoxicity analysis.
as §6, §7, §8

[3] = Cytotoxicity test (cell viability, CellTier Glo); format: cell-based; settings: human
Experimental: as §1, §2, §3, §4, §5, §9, §6, §7, §8

[4] = Oil-water partition coefficient (n-octanol / pH 7.4 phosphate buffer); format: physicochemical
Experimental: • a) To a 5 mL glass bottle was added 1 mL n-octanol and 1 mL pH 7.4 phosphate buffer, respectively. • b) The compound was added to a DMSO solution to prepare a compound stock solution with a concentration of 10 mM, and then 20 μL compound stock solution was added to the mixture solution of n-octanol and phosphate buffer. • c) Shaken at room temperature for 1 hour at a rate of 300/minute. • d) Kept for 30 minutes, and after the solution was completely layered, the upper and lower layers of the solution were taken separately to a 96 well deep well plate, and LC-MS/MS was used for detection via injection. • e) The aliquots of 1-octanol and aqueous solution were diluted consecutively with DMSO to obtain the final sample for LC-MS/MS analysis. Three consecutive dilutions were carried on every 1-octanol phase with covering a concentration range of 2500 fold. Every final aqueous phase was diluted consecutively twice with covering a concentration range of 100 fold. The MS peak areas of these solutions were used to generate log (peak area) based on the log (relative concentration) calibration line.
[formula] • Coct=sample concentration in n-octanol • Caq=sample concentration in pH 7.4 phosphate buffer

[5] = PK test of compounds (mouse); format: in vivo, ICR mice; settings: for bioavailability (in words): PK test in mice; for half-life / bioavailability: male, mouse, plasma, ICR mice; for half-life: PO 10 mg/kg; for bioavailability: PO 10 mg/kg (IV 2 mg/kg)
Experimental: The mice were not fed until 5 pm on the day before administration, and fasted overnight with water. The mice in Group IV were administered with 2 mg/kg, while those in Group PO were administered with 10 mg/kg. Feeding was resumed 2 hours after administration. For mice administered by gavage, 20 μL blood was collected from the saphenous vein in calf before administration and 0.25, 0.5, 1, 2, 4, 8, and 24 hours after administration, respectively, and placed in EDTA-K2 anticoagulant blood collection tubes, and then the blood would be placed on ice until centrifuged to obtain plasma samples. The plasma samples were centrifuged at 4° C. (3500 rpm, 10 min), and after separation, the samples were transferred to EP tubes and stored at −80° C. for detection. For mice admistrated by intravenous injection, 20 μL blood was collected from the saphenous vein in calf before administration and 0.0833, 0.25, 0.5, 1, 2, 4, 8 and 24 hours after administration, respectively, and placed in EDTA-K2 anticoagulant blood collection tubes, and then the blood would be placed on ice until centrifuged to obtain a plasma sample. The plasma samples were centrifuged at 4° C. (3500 rpm, 10 min), and after separation, the samples were transferred to EP tubes and stored at −80° C. for detection. The level of tested compounds in blood plasma of mice, who had orally administrated with different concentrations of drugs were determinated: 10 μL mouse blood at each time point after administration was taken, 100 μL methanol containing an internal standard (100 ng/mL) was added, vortex mixed for 1 minute, centrifuged at 4° C. (12000 rmp, 5 minutes), and 1 μL supernatant was taken from the plasma samples for LC-MS/MS analysis.

[6] = molecular target: HIV-1 integrase (Human immunodeficiency virus type 1 group M subtype B, UniProt P04585); experiment: Integrase activity test (HIV-1 Integrase Assay Kit EZ-1700)
Experimental: A non-radioactive assay method, an integrase assay kit, was used to measure integrase activity quantitatively.
Each component was prepared according to the instructions of the kit; preparation of test sample, 5 mM DMSO solution was prepared for backup, working solution was prepared according to the initial final concentration determined at the time of method establishment, with a 4-fold gradient dilution and 10 concentrations.
• (1) The working solution of sample was prepared according to the initial concentration determinated during the methodology establishment process; • (2) Reagents were prepared according to the methods provided in the kit; • (3) DS DNA coating—blocking—addition of integrase solution—addition of sample—addition of TS DNA—addition of HRP antibody-addition of TMB peroxidase substrate—TMB termination reaction-detection of light absorption value at 450 nm.
The software Graphpad Prism 8.0 was applied and the calculation equation of Log (inhibitor) vs. response variable slope was used to fit the IC50 curve.

[7] = HIV-1 pseudovirus, HEK 293T cells, 3 days, luciferase, read-out: EC50
[8] = Human immunodeficiency virus 1, HEK-293T, 72 h
[9] = n-octanol / pH 7.4 phosphate buffer, pH 7.4, read-out: Log D (pH 7.4)

Compound “(R)—N-(2,4-difluorophenyl)-7′-hydroxy-6′,8′-dioxo-2′,3′,6′,8′,12′,12a′-hexahydrospiro[cyclopropane-1,4′-pyridino[1′,2′:4,5]pyrazine[2,1-b][1,3]oxazine]-9′-formamide [Compound 15]” has an EC50 [1, 7] of 14 nM and a CC50 [2] of over 1000 nM.

With `C[C@H]1N2C(=O)c3c(O)c(=O)c(C(=O)NCc4ccc(F)cc4F)cn3C[C@@H]2OC12CC2` [Compound 10] the EC50 [1, 8] was 2.7 nM, the CC50 at 3 days [3] was over 1000 nM and the logD [4, 9] was 1.9. For the same compound, the “bioavailability (in words)” value [5] was “good bioavailability”, the half-life [5] was 1.53 ± 1.06 h and the bioavailability [5] was 32.9%.

Compound `C[C@@H]1CC2(CC2)O[C@H]2Cn3cc(C(=O)NCc4ccc(F)cc4F)c(=O)c(O)c3C(=O)N12` [Compound 6] has an EC50 [1, 8] of 3.03 nM, a CC50 at 3 days [3] of over 1000 nM and a logD [4, 9] of 2. For the same compound, the “bioavailability (in words)” value [5] was “good bioavailability”, the half-life [5] was 2.68 ± 0.66 h and the bioavailability [5] was 42.5%.

In the case of `C[C@@H]1CC2(CCCCC2)O[C@H]2Cn3cc(C(=O)NCc4ccc(F)cc4F)c(=O)c(O)c3C(=O)N12` [Compound 8], the EC50 [1, 8] is reported as 13.7 nM and the CC50 at 3 days [3] is reported as over 1000 nM.

With `Cc1nnc(C(=O)NC(C)(C)c2nc(C(=O)NCc3ccc(F)cc3)c(O)c(=O)n2C)o1` [RAL, Raltegravir, reference compound] the “antiviral activity against HIV-1 pseudovirus (in words)” value ([1]; HEK 293T cells) was “have antiviral activity”, the EC50 [1, 8] was 3.42 nM and the CC50 at 3 days ([3]; HEK 293T cells, highest test concentration 1000 nM, read-out: CC50) was over 1000 nM.

Work on `C[C@H]1N2C(=O)c3c(O)c(=O)c(C(=O)NCc4ccc(F)cc4F)cn3C[C@@H]2OCC12CCC2` [Compound 2] yielded an EC50 [1, 8] of 1.19 nM, a CC50 at 3 days [3] of over 1000 nM and a logD [4, 9] of 2.5. The “bioavailability (in words)” value [5] was “good bioavailability”, the half-life [5] was 1.94 ± 0.04 h and the bioavailability [5] was 50.8%.

For `C[C@@H]1CCO[C@H]2Cn3cc(C(=O)NCc4ccc(F)cc4F)c(=O)c(O)c3C(=O)N12` [DTG, Dolutegravir, reference compound], the “antiviral activity against HIV-1 pseudovirus (in words)” value ([1]; HEK 293T cells) was “have antiviral activity”, the EC50 [1, 8] was 1.49 nM and the CC50 at 3 days [3] was over 1000 nM. The logD [4, 9] was 1.6, the half-life [5] was 3.7 ± 0.09 h and the bioavailability [5] was 46%.

Work on `O=C(NCc1ccc(F)cc1F)c1cn2c(c(O)c1=O)C(=O)N1C(C2)OCC12CC2` (racemic) [Compound 16] yielded an EC50 [1, 8] of 1.11 nM, a CC50 at 3 days [3] of over 1000 nM and a logD ([4]; pH 7.4) of 1.8.

With `C[C@@H]1CC2(CCOCC2)O[C@H]2Cn3cc(C(=O)NCc4ccc(F)cc4F)c(=O)c(O)c3C(=O)N12` [Compound 9] the EC50 [1, 8] was 5.09 nM and the CC50 at 3 days [3] was over 1000 nM.

Work on `C[C@H]1N2C(=O)c3c(O)c(=O)c(C(=O)NCc4ccc(F)cc4F)cn3C[C@@H]2OCC12CCOCC2` [Compound 5] yielded an EC50 [1, 8] of 4.45 nM and a CC50 at 3 days [3] of over 1000 nM.

“(S)—N-(2,4-difluorophenyl)-7′-hydroxy-6′,8′-dioxo-2′,3′,6′,8′,12′,12a′-hexahydrospiro[cyclopropane-1,4′-pyridino[1′,2′:4,5]pyrazine[2,1-b][1,3]oxazine]-9′-formamide [Compound 14]” showed an EC50 [1, 7] of 8.72 nM and a CC50 [2] of over 1000 nM.

In the case of `C[C@]12CC[C@H]3[C@@H](CCC4=CC(=O)CC[C@@]43C)[C@@H]1CC[C@@H]2O` [Testosterone, reference compound], the logD ([4]; n-octanol / pH 7.4 phosphate buffer, read-out: Log D (pH 7.4)) is reported as 2.85.

`C[C@H]1N2C(=O)c3c(O)c(=O)c(C(=O)NCc4ccc(F)cc4F)cn3C[C@@H]2OC12CCCCC2` [Compound 12] gave an EC50 [1, 8] of 4.93 nM and a CC50 at 3 days [3] of over 1000 nM.

Compound `O=C(NCc1c(F)cc(F)cc1F)c1cn2c(c(O)c1=O)C(=O)N1[C@H]3CC[C@H](C3)O[C@@H]1C2` [BIC, Bictegravir, reference compound] has an IC50 [6] of 21.2 nM.

“(R)—N-(2,4-difluorophenyl)-6′-hydroxy-5′,7′-dioxo-5′,7′,11′,11a′-tetrahydro-2′H-spiro[cyclopropane-1,3′-oxazole[3,2-a]pyridino[1,2-d]pyrazine]-8′-formamide [Compound 18]” gave an EC50 [1, 7] of 3.34 nM and a CC50 [2] of over 1000 nM.

Compound `C[C@H]1N2C(=O)c3c(O)c(=O)c(C(=O)NCc4ccc(F)cc4F)cn3C[C@@H]2OCC12CCCCC2` [Compound 4] has an EC50 [1, 8] of 5.83 nM and a CC50 at 3 days [3] of over 1000 nM.

`C[C@H]1N2C(=O)c3c(O)c(=O)c(C(=O)NCc4ccc(F)cc4F)cn3C[C@@H]2OCC12CCCC2` [Compound 3] showed an EC50 [1, 8] of 5.63 nM and a CC50 at 3 days [3] of over 1000 nM.

With `C[C@@H]1CC2(CCCC2)O[C@H]2Cn3cc(C(=O)NCc4ccc(F)cc4F)c(=O)c(O)c3C(=O)N12` [Compound 7] the EC50 [1, 8] was 11.6 nM and the CC50 at 3 days [3] was over 1000 nM.

“(S)—N-(2,4-difluorophenyl)-6′-hydroxy-5′,7′-dioxo-5′,7′,11′,11a′-tetrahydro-2′H-spiro[cyclopropane-1,3′-oxazole[3,2-a]pyridino[1,2-d]pyrazine]-8′-formamide [Compound 17]” showed an EC50 [1, 7] of 3.73 nM and a CC50 [2] of over 1000 nM.

`O=C(NCc1ccc(F)cc1F)c1cn2c(c(O)c1=O)C(=O)N1C(C2)OCCC12CC2` (racemic) [Compound 13, (2,4-difluorophenyl)-7′-hydroxy-6′,8′-dioxo-2′,3′,6′,8′,12′,12a′-hexahydrospiro[cyclopropane-1,4′-pyridino[1′,2′:4,5]pyrazine[2,1-b][1,3]oxazine]-9′-formamide] gave an EC50 [1, 8] of 1.05 nM, a CC50 at 3 days [3] of over 1000 nM and a logD ([4]; pH 7.4) of 1.5.
